{"source": "patent US20250009737A1", "about": "“COMPOUNDS AND METHODS FOR THE TARGETED DEGRADATION OF ANDROGEN RECEPTOR” (Arvinas Operations, Inc., priority 2023, published 2025)", "type_in_all_cases": "in vitro ADME", "key": {"CYP2C9 mRNA": {"system": "CYP2C9 mRNA", "assay": "CYP2C9 mRNA induction in cryopreserved human hepatocytes", "details": "0.03-30 μM; for CYP2C9 mRNA Fold induction: human hepatocytes, 48 hours"}, "CYP1A2": {"target": "T1, CYP1A2 (Homo sapiens, UniProt P05177)", "T1 construct": "evaluated in pooled human liver microsomes (HLM); from tissue; host or cells: pooled human liver microsomes", "T1 sequence (P05177 whole entry)": "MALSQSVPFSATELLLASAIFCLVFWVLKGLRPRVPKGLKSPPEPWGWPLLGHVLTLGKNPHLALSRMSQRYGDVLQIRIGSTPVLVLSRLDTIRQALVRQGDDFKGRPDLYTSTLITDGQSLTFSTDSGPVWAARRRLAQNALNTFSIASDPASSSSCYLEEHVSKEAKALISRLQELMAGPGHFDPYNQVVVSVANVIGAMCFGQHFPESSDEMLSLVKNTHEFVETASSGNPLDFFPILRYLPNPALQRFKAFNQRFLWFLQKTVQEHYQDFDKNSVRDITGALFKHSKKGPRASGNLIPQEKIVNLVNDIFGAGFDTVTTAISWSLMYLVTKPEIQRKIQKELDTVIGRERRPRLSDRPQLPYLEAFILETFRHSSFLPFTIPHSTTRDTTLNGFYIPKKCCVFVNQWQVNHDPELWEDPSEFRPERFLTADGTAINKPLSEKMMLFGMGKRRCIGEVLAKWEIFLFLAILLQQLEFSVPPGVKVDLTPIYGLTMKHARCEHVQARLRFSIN", "assay": "Direct and time-dependent CYP1A2 inhibition in pooled human liver microsomes", "details": "pooled HLM, substrate Phenacetin 50 μM", "experimental": "(§1) The induction potential of Compound A on CYP enzymes was assessed in cryopreserved human hepatocytes from three donors. Following treatment for with Compound A at concentrations of 0.03-30 μM for 48 hours, mRNA levels for CYP1A2, 2B6, 2C8, 2C9, 2C19, and 3A4 were determined by semiquantitative real-time polymerase chain reaction (PCR). Test article concentrations during 24-hour incubation were determined. The potential of Compound A to cause direct and time-dependent inhibition (TDI) of the activities of CYP1A2, 2B6, 2C8, 2C9, 2C19, 2D6, and 3A4 was evaluated in pooled human liver microsomes (HLM) at 0.2-15 μM. Probe substrate concentrations around Km were used for direction inhibition and initial TDI assays. For TDI assay, Compound A was pre-incubated with pooled HLM with and without NADPH for 30 minutes prior to incubation with a single concentration of probe substrate."}, "MATE2-K": {"target": "T2, MATE2-K (Homo sapiens, UniProt Q86VL8)", "T2 construct": "expressed in transfected cells; host or cells: MDCKII or HEK293", "T2 sequence (Q86VL8 1-566 isoform Q86VL8-3)": "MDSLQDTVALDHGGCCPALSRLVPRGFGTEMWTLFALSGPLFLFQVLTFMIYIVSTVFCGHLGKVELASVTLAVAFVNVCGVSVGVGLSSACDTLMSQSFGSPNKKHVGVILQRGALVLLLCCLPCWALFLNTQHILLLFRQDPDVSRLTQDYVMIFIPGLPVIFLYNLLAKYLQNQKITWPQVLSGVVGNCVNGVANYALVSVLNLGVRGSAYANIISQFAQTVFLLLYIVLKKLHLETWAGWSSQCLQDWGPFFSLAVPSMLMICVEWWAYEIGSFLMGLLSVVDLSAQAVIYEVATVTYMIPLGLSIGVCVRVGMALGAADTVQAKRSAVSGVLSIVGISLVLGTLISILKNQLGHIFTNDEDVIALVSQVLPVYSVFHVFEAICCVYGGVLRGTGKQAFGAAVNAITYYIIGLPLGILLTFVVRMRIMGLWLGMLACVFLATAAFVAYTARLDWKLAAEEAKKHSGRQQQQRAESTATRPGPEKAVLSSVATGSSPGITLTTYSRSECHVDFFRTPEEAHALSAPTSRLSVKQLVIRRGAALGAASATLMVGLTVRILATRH", "assay": "MATE2-K uptake transporter inhibition in MDCKII or HEK293 cells", "details": "substrate Metformin (10 μM)", "experimental": "(§2) In addition, the inhibition potential against efflux transporters (P-glycoprotein (Pgp) and breast cancer resistance protein (BCRP)) and uptake transporters (MATE1, MATE2-K, OATP1B1, OATP1B3, OAT1, OAT3, and OCT2) was assessed using single transporter over-expressed cell monolayers (MDCK II or HEK293) or inside-out vesicles.\n(§3) The potential of Compound A to inhibit Pgp or BCRP was tested for bidirectional transport of the probe substrates in Pgp or BCRP-expressed MDCKII and control monolayers at Compound A concentrations of 0.07-5 μM. Pgp and BCR inhibition were tested in inside-out membrane vesicles prepared from HEK293 overexpressing human Pgp and BCR at concentrations of 0.01-9 μM Compound A in the presence of 4 mM MgATP or MgAMP."}, "major recombinant CYPs": {"system": "major recombinant CYPs", "assay": "Incubation with recombinant human CYP enzymes", "details": "up to 25 min", "experimental": "Metabolite profiling was conducted in incubations of Compound A (2 and 10 μM) with HLM (up to 60 min), human hepatocyte suspension (up to 240 min) and human plasma (up to 360 min). In addition, Compound A (2 μM) was incubated with recombinant human CYP enzymes CYP1A2, CYP2A6, CYP2B6, CYP2C8, CYP2C9, CYP2C19, CYP2D6, CYP2E1, CYP3A4 and CYP3A5.\nThe DDI potential of Compound A as a victim via CYP mediated pathways was examined in HLM, human hepatocyte suspensions, and human recombinant CYP enzymes."}, "CYP2C9": {"target": "T3, CYP2C9 (Homo sapiens, UniProt P11712)", "T3 construct": "evaluated in pooled human liver microsomes (HLM); from tissue; host or cells: pooled human liver microsomes", "T3 sequence (P11712 whole entry)": "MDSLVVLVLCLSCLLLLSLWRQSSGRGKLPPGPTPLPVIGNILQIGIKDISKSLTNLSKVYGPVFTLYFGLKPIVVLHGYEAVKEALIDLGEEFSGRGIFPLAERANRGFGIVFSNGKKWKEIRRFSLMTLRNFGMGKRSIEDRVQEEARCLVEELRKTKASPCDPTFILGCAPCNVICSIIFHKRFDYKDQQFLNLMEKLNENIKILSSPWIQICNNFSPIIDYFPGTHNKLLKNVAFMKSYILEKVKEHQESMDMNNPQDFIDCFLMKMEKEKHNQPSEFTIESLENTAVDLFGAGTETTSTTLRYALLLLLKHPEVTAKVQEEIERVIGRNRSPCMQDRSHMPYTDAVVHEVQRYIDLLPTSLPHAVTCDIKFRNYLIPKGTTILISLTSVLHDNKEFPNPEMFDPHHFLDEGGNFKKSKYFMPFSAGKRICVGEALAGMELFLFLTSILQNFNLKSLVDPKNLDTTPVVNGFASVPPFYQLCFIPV", "assay": "Direct and time-dependent CYP2C9 inhibition in pooled human liver microsomes", "details": "pooled HLM, substrate Diclofenac 5 μM", "experimental": "as §1"}, "[1]": {"system": "CYP1A2, 2B6, 2C8, 2C9, 2C19, 2D6, and 3A4", "assay": "Direct and time-dependent inhibition of all CYPs tested in pooled human liver microsomes", "details": "HLM", "experimental": "as §1"}, "OAT3": {"target": "T4, OAT3 (Homo sapiens, UniProt Q8TCC7)", "T4 construct": "expressed in transfected cells; host or cells: MDCKII or HEK293", "T4 sequence (Q8TCC7 whole entry)": "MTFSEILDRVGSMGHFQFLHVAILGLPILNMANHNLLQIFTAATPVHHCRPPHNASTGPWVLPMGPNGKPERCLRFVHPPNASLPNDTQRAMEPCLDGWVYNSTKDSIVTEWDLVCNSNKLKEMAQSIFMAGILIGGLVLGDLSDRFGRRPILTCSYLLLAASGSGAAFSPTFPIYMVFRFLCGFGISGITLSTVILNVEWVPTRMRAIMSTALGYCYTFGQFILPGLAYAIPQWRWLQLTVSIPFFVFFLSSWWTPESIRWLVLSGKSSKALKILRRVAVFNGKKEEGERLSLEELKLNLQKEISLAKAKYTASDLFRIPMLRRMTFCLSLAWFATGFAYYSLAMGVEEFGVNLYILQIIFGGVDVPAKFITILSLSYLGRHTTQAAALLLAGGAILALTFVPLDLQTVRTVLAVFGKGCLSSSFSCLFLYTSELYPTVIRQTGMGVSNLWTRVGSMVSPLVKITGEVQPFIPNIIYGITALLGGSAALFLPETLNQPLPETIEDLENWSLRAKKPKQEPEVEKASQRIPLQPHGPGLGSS", "assay": "OAT3 uptake transporter inhibition in MDCKII or HEK293 cells", "details": "substrate E3S (1 μM)", "experimental": "as §2, §3"}, "Caco-2 cell monolayers": {"system": "Caco-2 cell monolayers", "assay": "Bidirectional permeability in Caco-2 cell monolayers", "details": "1% of BSA, 120 min incubation", "experimental": "The potential of Compound A to act as an efflux transporter Pgp and BCRP as well as uptake transporter OATP1B1 and 1B3 were assessed in Caco-2 and single transporter over-expressed HEK29 cells, respectively.\nThe potential of Compound A to act as a substrate for Pgp and BCRP was examined in Caco-2 cells at the concentrations of 0.075, 0.75, 3.75 and 7.5 μM containing 1% of BSA. After 120 min incubation, the bidirectional permeability of Compound A was determined by LC-MS/MS. The involvement of Compound A as a substrate of OATP1B1 and OATP1B3 was assessed in the uptake transporter substrate assays at 4 concentrations (0.1, 0.5, 1 and 5 μM). Compound A in cell lysates was determined by LC-MS/MS."}, "CYP2D6": {"target": "T5, CYP2D6 (Homo sapiens, UniProt P10635)", "T5 construct": "evaluated in pooled human liver microsomes (HLM); from tissue; host or cells: pooled human liver microsomes", "T5 sequence (P10635 whole entry)": "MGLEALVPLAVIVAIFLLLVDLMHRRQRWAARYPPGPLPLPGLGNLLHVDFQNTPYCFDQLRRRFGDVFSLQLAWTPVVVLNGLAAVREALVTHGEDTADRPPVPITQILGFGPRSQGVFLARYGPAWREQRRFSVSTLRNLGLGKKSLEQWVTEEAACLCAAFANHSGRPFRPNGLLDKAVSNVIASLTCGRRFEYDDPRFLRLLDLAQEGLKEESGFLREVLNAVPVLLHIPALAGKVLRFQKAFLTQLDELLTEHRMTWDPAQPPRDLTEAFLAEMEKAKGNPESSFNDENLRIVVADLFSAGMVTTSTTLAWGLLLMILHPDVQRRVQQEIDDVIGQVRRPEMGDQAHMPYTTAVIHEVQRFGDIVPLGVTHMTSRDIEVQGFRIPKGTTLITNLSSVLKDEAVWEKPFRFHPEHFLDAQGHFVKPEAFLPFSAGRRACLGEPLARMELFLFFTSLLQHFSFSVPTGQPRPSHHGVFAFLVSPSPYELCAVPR", "assay": "Direct and time-dependent CYP2D6 inhibition in pooled human liver microsomes", "details": "pooled HLM, substrate Bufuralol 5 μM", "experimental": "as §1"}, "CYP3A4 mRNA": {"system": "CYP3A4 mRNA", "assay": "CYP3A4 mRNA induction in cryopreserved human hepatocytes", "details": "for CYP3A4 mRNA induction, % PC: % of positive control response; for CYP3A4 mRNA Fold induction: human hepatocytes, maximal"}, "CYP3A": {"target": "CYP3A (Homo sapiens, UniProt P08684)", "sequence (P08684 2-503)": "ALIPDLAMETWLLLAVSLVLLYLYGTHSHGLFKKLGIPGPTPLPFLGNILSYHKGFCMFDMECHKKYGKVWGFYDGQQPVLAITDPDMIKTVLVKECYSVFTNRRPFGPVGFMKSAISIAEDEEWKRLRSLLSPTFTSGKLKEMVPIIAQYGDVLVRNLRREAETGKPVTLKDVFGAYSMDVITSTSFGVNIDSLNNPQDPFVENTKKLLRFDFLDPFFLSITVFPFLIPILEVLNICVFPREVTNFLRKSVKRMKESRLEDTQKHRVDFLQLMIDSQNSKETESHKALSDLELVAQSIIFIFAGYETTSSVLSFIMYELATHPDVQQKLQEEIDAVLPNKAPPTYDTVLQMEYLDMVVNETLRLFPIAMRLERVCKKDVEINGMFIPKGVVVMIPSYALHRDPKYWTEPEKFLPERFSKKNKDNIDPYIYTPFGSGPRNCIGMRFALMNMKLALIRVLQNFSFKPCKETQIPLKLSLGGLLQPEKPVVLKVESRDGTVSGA", "assay": "Direct and time-dependent CYP3A inhibition in pooled human liver microsomes", "details": "pooled HLM, read-out: IC50, No Pre-incubation", "experimental": "as §1"}, "CYP1A2 mRNA": {"system": "CYP1A2 mRNA", "assay": "CYP1A2 mRNA induction in cryopreserved human hepatocytes", "details": "0.03-30 μM; for CYP1A2 mRNA Fold induction: human hepatocytes, 48 hours", "experimental": "as §1"}, "OAT1": {"target": "T6, OAT1 (Homo sapiens, UniProt Q4U2R8)", "T6 construct": "expressed in transfected cells; host or cells: MDCKII or HEK293", "T6 sequence (Q4U2R8 whole entry)": "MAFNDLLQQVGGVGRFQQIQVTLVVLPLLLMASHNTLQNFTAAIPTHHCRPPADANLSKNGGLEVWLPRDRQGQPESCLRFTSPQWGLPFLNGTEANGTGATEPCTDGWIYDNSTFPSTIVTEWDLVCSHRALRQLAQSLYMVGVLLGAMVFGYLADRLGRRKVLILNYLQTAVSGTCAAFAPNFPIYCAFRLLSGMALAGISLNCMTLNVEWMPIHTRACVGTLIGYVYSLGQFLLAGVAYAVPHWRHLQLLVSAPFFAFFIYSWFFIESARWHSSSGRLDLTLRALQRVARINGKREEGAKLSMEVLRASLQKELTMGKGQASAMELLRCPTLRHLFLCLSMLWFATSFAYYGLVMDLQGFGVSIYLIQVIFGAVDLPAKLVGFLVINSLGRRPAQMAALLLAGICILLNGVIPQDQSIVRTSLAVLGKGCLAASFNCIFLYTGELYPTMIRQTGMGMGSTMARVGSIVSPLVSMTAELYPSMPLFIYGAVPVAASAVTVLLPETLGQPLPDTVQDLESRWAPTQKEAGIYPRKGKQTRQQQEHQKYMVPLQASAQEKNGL", "assay": "OAT1 uptake transporter inhibition in MDCKII or HEK293 cells", "details": "substrate Estrone-3-sulfate (E3S) (5 μM)", "experimental": "as §2, §3"}, "[2]": {"details": "all three donors of human hepatocytes"}, "[3]": {"details": "read-out: IC50, 30 min Pre-incubation"}, "[4]": {"details": "read-out: IC50, No Pre-incubation"}}, "note": "Read-outs that look alike come from different tables or passages of the source.", "data": [{"smiles": "COc1cc(O[C@H]2C(C)(C)[C@H](NC(=O)c3ccc(N4CCC(CN5CCN(c6ccc(C(=O)N[C@H]7CCC(=O)NC7=O)c(F)c6)CC5)CC4)cc3)C2(C)C)ccc1C#N", "note": "[Compound A, 4-(4-((1-(4-(((1R,3R)-3-(4-cyano-3-methoxyphenoxy)-2,2,4,4-tetramethylcyclobutyl)carbamoyl)phenyl)piperidin-4-yl)methyl)piperazin-1-yl)-N—((S)-2,6-dioxopiperidin-3-yl)-2-fluorobenzamide]", "values": [{"measurement": "CYP2C9 mRNA Fold induction", "setting": "CYP2C9 mRNA; Donor 1", "result": "<2", "unit": "Fold"}, {"measurement": "CYP2C9 mRNA Fold induction", "setting": "CYP2C9 mRNA; Donor 2", "result": "<2", "unit": "Fold"}, {"measurement": "CYP2C9 mRNA Fold induction", "setting": "CYP2C9 mRNA; Donor 3", "result": "<2", "unit": "Fold"}, {"measurement": "Induction of CYP2C9 mRNA", "setting": "CYP2C9 mRNA; [2]", "result": "did not induce"}, {"measurement": "IC50", "setting": "CYP1A2; [3]", "result": "> 15", "unit": "µM"}, {"measurement": "IC50", "setting": "CYP1A2; [4]", "result": "> 15", "unit": "µM"}, {"measurement": "IC50", "setting": "MATE2-K", "result": "> 3.75", "unit": "µM"}, {"measurement": "Stability in major recombinant CYPs", "setting": "major recombinant CYPs", "result": "relatively stable"}, {"measurement": "IC50", "setting": "CYP2C9; [3]", "result": "> 15", "unit": "µM"}, {"measurement": "IC50", "setting": "CYP2C9; [4]", "result": "> 15", "unit": "µM"}, {"measurement": "Direct inhibition, maximal inhibition", "setting": "[1]; all CYPs, up to 15 µM tested", "result": "≤ 12", "unit": "%"}, {"measurement": "TDI (time-dependent inhibition)", "setting": "[1]; all CYPs, up to 15 µM tested", "result": "≤ 15", "unit": "%"}, {"measurement": "Direct or time-dependent inhibition", "setting": "[1]; any of the CYP isoforms, 0.2-15 µM", "result": "no direct or time-dependent inhibition was observed"}, {"measurement": "IC50", "setting": "OAT3", "result": "> 3.75", "unit": "µM"}, {"measurement": "Permeability in Caco-2 cell monolayers", "setting": "Caco-2 cell monolayers", "result": "low permeability"}, {"measurement": "IC50", "setting": "CYP2D6; [3]", "result": "> 15", "unit": "µM"}, {"measurement": "IC50", "setting": "CYP2D6; [4]", "result": "> 15", "unit": "µM"}, {"measurement": "CYP3A4 mRNA induction, % PC", "setting": "CYP3A4 mRNA; Donor 1", "result": 5, "unit": "% PC"}, {"measurement": "CYP3A4 mRNA Fold induction", "setting": "CYP3A4 mRNA; Donor 1", "result": 8.8, "unit": "Fold"}, {"measurement": "CYP3A4 mRNA induction, % PC", "setting": "CYP3A4 mRNA; Donor 2", "result": 6, "unit": "% PC"}, {"measurement": "CYP3A4 mRNA Fold induction", "setting": "CYP3A4 mRNA; Donor 2", "result": 2.5, "unit": "Fold"}, {"measurement": "CYP3A4 mRNA induction, % PC", "setting": "CYP3A4 mRNA; Donor 3", "result": 5, "unit": "% PC"}, {"measurement": "CYP3A4 mRNA Fold induction", "setting": "CYP3A4 mRNA; Donor 3", "result": 3.3, "unit": "Fold"}, {"measurement": "CYP3A4 mRNA induction, % of positive control response", "setting": "CYP3A4 mRNA; all three donors, at 0.1-0.3 μM", "result": "4-6%"}, {"measurement": "fold induction at 48 h", "setting": "CYP3A4 mRNA; human, cryopreserved human hepatocytes, all three donors, at 0.1-0.3 μM, read-out: Maximal fold induction in CYP3A4 mRNA", "result": "2.5 to 8.8"}, {"measurement": "IC50", "setting": "CYP3A; probe midazolam (2 μM), substrate Midazolam 2 μM", "result": "> 15", "unit": "µM"}, {"measurement": "IC50", "setting": "CYP3A; probe testosterone (50 μM), substrate Testosterone 50 μM", "result": "> 15", "unit": "µM"}, {"measurement": "CYP1A2 mRNA Fold induction", "setting": "CYP1A2 mRNA; Donor 1", "result": "<2", "unit": "Fold"}, {"measurement": "CYP1A2 mRNA Fold induction", "setting": "CYP1A2 mRNA; Donor 2", "result": "<2", "unit": "Fold"}, {"measurement": "CYP1A2 mRNA Fold induction", "setting": "CYP1A2 mRNA; Donor 3", "result": "<2", "unit": "Fold"}, {"measurement": "Induction of CYP1A2 mRNA", "setting": "CYP1A2 mRNA; [2]", "result": "did not induce"}, {"measurement": "IC50", "setting": "OAT1", "result": "> 3.75", "unit": "µM"}]}]}
